Assays:
[1] = tested on: Penicillium chrysogenum ΔhdfAΔ Pc18g05230; assay: Compactin sensitivity of Penicillium chrysogenum strains, growth in liquid media; format: cell-based; details: mutant for Pc18g05230 (SEQ ID NO 1); liquid media with different amounts of compactin; 2 days of growth at 25 C
Protocol: (§1) Fungal growth was performed in a mineral medium, containing (g/L): glucose (5); lactose (35); urea (4.5); (NH4)2SO4 (1.1); Na2SO4 (2.9); KH2PO4 (5.2); K2HPO4 (4.8) and 10 mL/L of a trace element solution containing (in g/l): citric acid (150); FeSO4.7H2O (15); MgSO4.7H2O (150); H3BO3 (0.0075); CuSO4.5H2O (0.24); CoSO4.7H2O (0.375); ZnSO4.7H2O (5); MnSO4.H2O (2.28); CaCl2.2H2O (0.99); pH before sterilization 6.5. Oxoid agar was added at 15 g/l to solidify the medium.
(§2) Compactin was maintained as a stock solution at 20 g/L in ethanol at −20 C.
The gene Pc18g05230 was identified as a HMGR encoding gene. In order to prevent the transcription of this gene a selection marker gene was inserted between the promoter and the open reading frame (ORF). To this end the promoter and the ORF were PCR amplified using the oligonucleotides SEQ ID NO 5 plus 6 and SEQ ID NO 7 plus 8, respectively (see FIG. 1). Phusion Hot-Start Polymerase (Finnzymes) was used to amplify the fragments. The fragments obtained are 1539 and 2514 base pairs (bp) in length (SEQ ID NO 31 and SEQ ID NO 32) and contain a 14 bp tail suitable for the so-called STABY cloning method (Eurogentec). From the standard STABY vector, pSTC1.3, two derivatives were obtained. One, pSTamdSL (SEQ ID NO 39), was used for cloning the PCR amplified promoter (SEQ ID NO 31). […]

[2] = tested on: Penicillium chrysogenum ΔhdfAΔ Pc16g05060; assay: as above; format: cell-based; details: mutant for Pc16g05060 (SEQ ID NO 9); liquid media with different amounts of compactin; 2 days of growth at 25 C
Protocol: as §1, §2
The gene Pc16g05060 was identified as a HMGR encoding gene. In order to prevent the transcription of this gene a selection marker gene was inserted between the promoter and the open reading frame (ORF). To this end the promoter and the ORF were PCR amplified using the oligonucleotides SEQ ID NO 13 plus 14 and SEQ ID NO 15 plus 16, respectively (see FIG. 1). Phusion Hot-Start Polymerase (Finnzymes) was used to amplify the fragments. The fragments obtained are 1539 and 1514 base pairs (bp) in length (SEQ ID NO 35 and SEQ ID NO 36) and contain a 14 bp tail suitable for the so-called STABY cloning method (Eurogentec).
Spores of the Penicillium chrysogenum mutants for both HMGR encoding genes, Pc18g05230 (SEQ ID NO 1) and Pc16g05060 (SEQ ID NO 9), were inoculated in liquid media with different amounts of compactin.

CC[C@H](C)C(=O)O[C@H]1CCC=C2C=C[C@H](C)[C@H](CC[C@@H]3C[C@@H](O)CC(=O)O3)[C@H]21 [Compactin, compactin]
compactin sensitivity of the mutant, in words [1]: increased compactin sensitivity | compactin sensitivity of the mutant, in words [2]: increased compactin sensitivity

From patent US20110054193A1, “STATIN PRODUCTION” (priority 2008, published 2011)
